According to paper PMC11928319 (Nature Plants, 2025):
Where a SMILES comes first, the peptide text is derived from it. [ ]: non-standard residue; d: D form. Hyp = O=C(O)[C@@H]1C[C@@H](O)CN1

Legend:
[1] = tested on: filter-sterile supernatant of Rhodanobacter R179 (secreted peptidase(s)); assay: Peptide quantification by mass spectrometry after incubation in cell-free supernatant of Rhodanobacter R179; type: in vitro ADME; settings: for peptide detected by mass spectrometry after incubation in supernatant of the R179 dssAB mutant / peptide detected by mass spectrometry after incubation in supernatant of wild-type R179: 1 µM peptide, 1 h, LC-MS MS1 peak area; for peptide detected by mass spectrometry after incubation in supernatant of the R179 dssAB mutant: filter-sterile supernatant of dssAB mutant cultivated in XVM2 (OD600 = 0.4), n = 3; for peptide detected by mass spectrometry after incubation in supernatant of wild-type R179: filter-sterile supernatant of wild-type R179 cultivated in XVM2 minimal medium (OD600 = 0.4), light chamber, n = 3 culture supernatants
Method: Elicitors were also supplemented into the medium prior to solidification at a final concentration of 1 µM. The flg22 ([…]) and AtPep1 ([…]) peptides were synthesized by EZbiolab. elf18^R179 (Ac-[…]) and elf18 (Ac-[…]) were synthesized by GenScript and EZbiolab, respectively. For inoculation with the bacterial supernatant, bacteria were cultivated overnight in XVM2 minimal medium (20 mM NaCl, 10 mM (NH4)2SO4, 5 mM MgSO4, 1 mM CaCl2, 0.16 mM KH2PO4, 0.32 mM K2HPO4, 0.01 mM FeSO4, 10 mM fructose, 10 mM sucrose, 0.03% Casamino acids, pH 6.7)[76] to a final concentration of OD600 = 0.4. Bacteria were pelleted by centrifugation (11,600 g, 2 min), and the supernatant was sterile-filtered using filter units with MF-Millipore membrane (0.22 µm; Millex). The supernatant was incubated in boiling water for 30 min for heat treatment. Then, 25 ml of 1× MS with 20 g l^−1 Bacto Agar was mixed with 25 ml of supernatant prior to medium solidification and poured into square petri dishes. Sterilized seeds were placed on solidified agar in square petri dishes and vertically incubated for 14 days.
Bacterial supernatants were prepared as described in ‘Agar-based cultivation of axenic plants and co-cultivation with bacteria, bacterial supernatants and elicitors’. Here, additionally, the peptides dRGF1 (DYSNPGHHP-Hyp-RHN) and PSY1 (D-Y(SO3H)-[…]-Hyp-Hyp-S) synthesized by Scilight Peptide were incubated for 1 h with 1 µM of peptides in a plant cultivation light chamber (day-light condition; see ‘Plant cultivation conditions’), and the samples were frozen at −20 °C until further processing. For the investigation of AtPep1 degradation, the AtPep1 peptide was first modified by acetylation (six to seven times). To this end, 100-µl aliquots of peptides were treated with 10 µl of NHS acetate solution (1 M NHS acetate in 50% ACN/PBS) and incubated for 30 min with shaking. The reaction was quenched by the addition of 100 µl of 100 mM Tris-HCl (pH 8.5) and incubated for 10 min. For comparison of the non-acetylated peptides with the above-described modified AtPep1 peptides, aliquots of the non-acetylated peptides were processed as described above, but without the modifying NHS reaction. To this end, 100-µl aliquots of the sample were mixed with 100 µl of PBS buffer (137 mM NaCl, 2.7 mM KCl, 10 mM Na2HPO4, 1.8 mM KH2PO4; pH 7.4). The samples were then further diluted with 100 µl of 100 mM Tris-HCl (pH 8.5) and incubated for 10 min. All samples were acidified with 5 µl of TFA and desalted using StageTips with C18 Empore disk membranes (3M)[109]. The samples were dried in a vacuum evaporator and dissolved in 10 µl of 2% ACN (0.1% TFA for analysis).
The samples were analysed using an EASY-nLC 1200 (Thermo Fisher) coupled to a QExactive Plus mass spectrometer (Thermo Fisher). Peptides were separated on 16-cm frit-less silica emitters (New Objective, 75 µm inner diameter), packed in-house with reversed-phase ReproSil-Pur C18 AQ 1.9 µm resin (Dr. Maisch). Peptides were loaded on the column and eluted for 50 min using a segmented linear gradient of 5% to 95% solvent B (0 min, 5% B; 0–5 min, 15% B; 5–35 min, 50% B; 35–45 min, 95% B; 45–50 min, 95% B) (solvent A: 0% ACN, 0.1% FA; solvent B: 80% ACN, 0.1% FA) at a flow rate of 300 nl min^−1. Mass spectra were acquired in data-dependent acquisition mode with a TOP10 method. Mass spectrometry spectra were acquired in the Orbitrap analyser with a mass range of 300–1,500 m/z at a resolution of 70,000 full width at half maximum (FWHM) and a target value of 3 × 10^6 ions. Precursors were selected with an isolation window of 1.3 m/z. Higher-energy collision dissociation (HCD) fragmentation was performed at a normalized collision energy of 25. Tandem mass spectrometry (MS/MS) spectra were acquired with a target value of 5 × 10^5 ions at a resolution of 17,500 FWHM, a maximum injection time of 85 ms and a fixed first mass of 100 m/z. […]

[2] = supernatant of the R179 dssAB mutant grown in XVM2 minimal medium supplemented with 10% TSB; settings: Rhodanobacter R179 dssAB mutant, plant cultivation light chamber (day-light condition; 21 °C), up to 1 h
[3] = supernatant of wild-type R179 grown in XVM2 medium supplemented with 10% carbon-rich medium (tryptic soy broth); settings: Rhodanobacter R179, plant cultivation light chamber (day-light condition; 21 °C), up to 1 h
[4] = filter-sterile supernatant of wild-type Rhodanobacter R179 cultivated in XVM2 medium (bacterial culture: OD600 = 0.4); settings: Rhodanobacter R179, plant cultivation light chamber (day-light condition; 21 °C), up to 1 h
[5] = filter-sterile supernatant of the Rhodanobacter R179 dssAB mutant cultivated in XVM2 medium (bacterial culture: OD600 = 0.4); settings: plant cultivation light chamber (day-light condition; 21 °C), up to 1 h
[6] = R179 dssAB mutant supernatant, XVM2 medium, incubation 1h, MS1 precursor area, replicate 1
[7] = R179 dssAB mutant supernatant, XVM2 medium, incubation 1h, MS1 precursor area, replicate 2
[8] = R179 dssAB mutant supernatant, XVM2 medium, incubation 1h, MS1 precursor area, replicate 3
[9] = R179 dssAB mutant supernatant, XVM2 medium, incubation 1h, peptide relative to axenic, replicate 1
[10] = R179 dssAB mutant supernatant, XVM2 medium, incubation 1h, peptide relative to axenic, replicate 2
[11] = R179 dssAB mutant supernatant, XVM2 medium, incubation 1h, peptide relative to axenic, replicate 3
[12] = R179 wt supernatant, XVM2 medium, incubation 1h, MS1 precursor area, replicate 1
[13] = R179 wt supernatant, XVM2 medium, incubation 1h, MS1 precursor area, replicate 2
[14] = R179 wt supernatant, XVM2 medium, incubation 1h, MS1 precursor area, replicate 3
[15] = R179 wt supernatant, XVM2 medium, incubation 1h, peptide relative to axenic, replicate 1
[16] = R179 wt supernatant, XVM2 medium, incubation 1h, peptide relative to axenic, replicate 2
[17] = R179 wt supernatant, XVM2 medium, incubation 1h, peptide relative to axenic, replicate 3
[18] = axenic XVM2 medium control, incubation 1h, MS1 precursor area, replicate 1
[19] = axenic XVM2 medium control, incubation 1h, MS1 precursor area, replicate 2
[20] = axenic XVM2 medium control, incubation 1h, MS1 precursor area, replicate 3
[21] = axenic XVM2 medium control, incubation 1h, peptide relative to axenic, replicate 1
[22] = axenic XVM2 medium control, incubation 1h, peptide relative to axenic, replicate 2
[23] = axenic XVM2 medium control, incubation 1h, peptide relative to axenic, replicate 3

## D-Y(SO3H)-GDPSANPKHDPGV-Hyp-Hyp-S [PSY1, root-growth-promoting sulfated PSY1 peptide]
[1]
  peptide detected by mass spectrometry after incubation in supernatant of the R179 dssAB mutant: still detected
  peptide detected by mass spectrometry after incubation in supernatant of wild-type R179: still detected
[1]; [6]
  Log10(total_area_MS1): 9.656
[1]; [7]
  Log10(total_area_MS1): 9.68
[1]; [8]
  Log10(total_area_MS1): 9.49
[1]; [9]
  percent_rel_axenic: 16.8242%
[1]; [10]
  percent_rel_axenic: 17.7896%
[1]; [11]
  percent_rel_axenic: 11.4643%
[1]; [12]
  Log10(total_area_MS1): 9.465
[1]; [13]
  Log10(total_area_MS1): 9.6971
[1]; [14]
  Log10(total_area_MS1): 9.627
[1]; [15]
  percent_rel_axenic: 10.8248%
[1]; [16]
  percent_rel_axenic: 18.4872%
[1]; [17]
  percent_rel_axenic: 15.7291%
[1]; [18]
  Log10(total_area_MS1): 10.5778
[1]; [19]
  Log10(total_area_MS1): 10.3906
[1]; [20]
  Log10(total_area_MS1): 10.2645
[1]; [21]
  percent_rel_axenic: 140.453%
[1]; [22]
  percent_rel_axenic: 91.2772%
[1]; [23]
  percent_rel_axenic: 68.27%

## N=C(N)NCCC[C@H](NC(=O)[C@@H]1C[C@@H](O)CN1C(=O)[C@@H]1CCCN1C(=O)[C@H](Cc1c[nH]cn1)NC(=O)[C@H](Cc1c[nH]cn1)NC(=O)CNC(=O)[C@@H]1CCCN1C(=O)[C@H](CC(N)=O)NC(=O)[C@H](CO)NC(=O)[C@H](Cc1ccc(O)cc1)NC(=O)[C@@H](N)CC(=O)O)C(=O)N[C@@H](Cc1c[nH]cn1)C(=O)N[C@@H](CC(N)=O)C(=O)O [dRGF1] (H-DYSNPGHHP[Hyp]RHN-OH)
[1]
  peptide detected by mass spectrometry after incubation in supernatant of the R179 dssAB mutant: still detected
  peptide detected by mass spectrometry after incubation in supernatant of wild-type R179: still detected
[1]; [6]
  Log10(total_area_MS1): 8.738
[1]; [7]
  Log10(total_area_MS1): 8.7982
[1]; [8]
  Log10(total_area_MS1): 8.898
[1]; [9]
  percent_rel_axenic: 299.876%
[1]; [10]
  percent_rel_axenic: 344.476%
[1]; [11]
  percent_rel_axenic: 433.442%
[1]; [12]
  Log10(total_area_MS1): 8.685
[1]; [13]
  Log10(total_area_MS1): 8.632
[1]; [14]
  Log10(total_area_MS1): 8.682
[1]; [15]
  percent_rel_axenic: 265.464%
[1]; [16]
  percent_rel_axenic: 235.074%
[1]; [17]
  percent_rel_axenic: 263.706%
[1]; axenic XVM2_TSB, 1h, 1 µM, LC-MS [M+2H], replicate 2
  Log10(total_area_MS1): 8.595
[1]; axenic XVM2_TSB, 1h, 1 µM, LC-MS [M+2H], replicate 3
  Log10(total_area_MS1): 8.5
[1]; axenic XVM2_TSB, 1h, 1 µM, LC-MS, relative to axenic, replicate 2
  percent_rel_axenic: 103.573%
[1]; axenic XVM2_TSB, 1h, 1 µM, LC-MS, relative to axenic, replicate 3
  percent_rel_axenic: 83.3448%
[1]; [18]
  Log10(total_area_MS1): 8.337
[1]; [19]
  Log10(total_area_MS1): 8.259
[1]; [20]
  Log10(total_area_MS1): 8.171
[1]; [21]
  percent_rel_axenic: 119.158%
[1]; [22]
  percent_rel_axenic: 99.6152%
[1]; [23]
  percent_rel_axenic: 81.2268%
[1]; supernatant of wt R179 grown in XVM2_TSB, 1h, 1 µM, LC-MS [M+2H], replicate 1
  Log10(total_area_MS1): 8.931
[1]; supernatant of wt R179 grown in XVM2_TSB, 1h, 1 µM, LC-MS [M+2H], replicate 2
  Log10(total_area_MS1): 9.001
[1]; supernatant of wt R179 grown in XVM2_TSB, 1h, 1 µM, LC-MS, relative to axenic, replicate 1
  percent_rel_axenic: 225.002%
[1]; supernatant of wt R179 grown in XVM2_TSB, 1h, 1 µM, LC-MS, relative to axenic, replicate 2
  percent_rel_axenic: 263.948%

## DYSNPGHHP-Hyp-RHN
[2]
  not cleaved: peak area above 100% relative to mock (Extended Data Fig. 7d)
[3]
  not cleaved: peak area above 100% relative to mock (Extended Data Fig. 7d)
[4]
  not cleaved: still detected after 1 h; peak area above 100% relative to mock (Fig. 4a)
[5]
  not cleaved: still detected after 1 h; peak area above 100% relative to mock (Fig. 4a)
